Laboratory results from ChEMBL document CHEMBL3603790, “2- and 3-Fluoro-3-deazaneplanocins, 2-fluoro-3-deazaaristeromycins, and 3-methyl-3-deazaneplanocin: Synthesis and antiviral properties” (Bioorg Med Chem, 2015).
Activity calls are given as the source filed them. The rule behind the calls is not given here.

What was measured:
[1] = Cytotoxicity against African green monkey Vero E6 cells; type: cell-based; conditions: chlorocebus sabaeus
MDCK = assay: Cytotoxicity against MDCK cells; type: cell-based, Canis lupus familiaris; conditions: dog, mdck
Enterovirus C = assay: Antiviral activity against Poliovirus infected in monkey LLC-MK2 cells after 3 days by neutral red dye-based plaque reduction assay; type: functional, organism-based
[2] = tested on: Respiratory syncytial virus; assay: Antiviral activity against Respiratory syncytial virus infected in monkey MA104 cells after 3 days by neutral red dye-based plaque reduction assay; type: functional, organism-based
[3] = (§1) Cytotoxicity against African green monkey Vero cells; type: cell-based; conditions: chlorocebus sabaeus, Vero cells
Measles morbillivirus = assay: Antiviral activity against Measles virus infected in African green monkey CV1 cells after 3 days by neutral red dye-based plaque reduction assay; type: functional, organism-based; conditions: CV-1, 72 h
Human alphaherpesvirus 1 = assay: Antiviral activity against Human herpesvirus 1 infected in HEL cells after 3 days by neutral red dye-based plaque reduction assay; type: functional, organism-based
[4] = Selectivity index, ratio of CC50 for human HepG2(2.2.1) cells to IC50 for HBV; type: functional
Influenza A virus = assay: Antiviral activity against Influenza A virus H1N1 infected in MDCK cells after 3 days by neutral red dye-based plaque reduction assay; type: functional, organism-based
LLC-MK2 = assay: Cytotoxicity against monkey LLC-MK2 cells; type: cell-based, Macaca mulatta; conditions: rhesus monkey
[5] = Selectivity index, ratio of CC50 for African green monkey CV1 cells to IC50 for Measles virus; type: functional, CV-1
[6] = Cytotoxicity against human Ava5 cells; type: cell-based
[7] = tested on: Venezuelan equine encephalitis virus; assay: Antiviral activity against Venezuelan equine encephalitis virus infected in African green monkey Vero cells after 3 days by neutral red dye-based plaque reduction assay; type: functional, organism-based
[8] = Inhibition of rabbit erythrocytic AdoHcy hydrolase using AdoHcy as substrate assessed as formation of L-homocysteine preincubated for 5 mins followed by substrate addition measured after 1 hr by thiol quantitation reagent-based assay; set-up: species or system Oryctolagus cuniculus
[9] = Cytotoxicity against monkey MA104 cells; type: cell-based, Macaca mulatta; conditions: rhesus monkey
[10] = Cytotoxicity against HFF; type: cell-based; conditions: human, HFF cells
[11] = Cytotoxicity against African green monkey CV1 cells; type: cell-based, CV-1; conditions: chlorocebus aethiops
Rift Valley fever virus = assay: Antiviral activity against Rift Valley fever virus infected in African green monkey Vero 76 cells after 3 days by neutral red dye-based plaque reduction assay; type: functional, organism-based
SARS-CoV = assay: Antiviral activity against SARS coronavirus infected in African green monkey Vero E6 cells after 3 days by neutral red dye-based plaque reduction assay; type: functional, organism-based; conditions: Severe acute respiratory syndrome-related coronavirus
HEL = assay: Cytotoxicity against HEL cells; type: cell-based; conditions: human
West Nile virus = assay: Antiviral activity against WNV infected in African green monkey Vero 76 cells after 3 days by neutral red dye-based plaque reduction assay; type: functional, organism-based
[12] = Selectivity index, ratio of CC50 for African green monkey Vero cells to IC50 for Yellow fever virus; type: functional
Human betaherpesvirus 5 = assay: Antiviral activity against HCMV infected in HFF after 3 days by neutral red dye-based plaque reduction assay; type: functional, organism-based; conditions: Human betaherpesvirus 5, 72 h
[13] = Selectivity index, ratio of CC50 for HFF to IC50 for HCMV; type: functional
Human alphaherpesvirus 2 = assay: Antiviral activity against Human herpesvirus 2 infected in HEL cells after 3 days by neutral red dye-based plaque reduction assay; type: functional, organism-based
[14] = tested on: Respiratory syncytial virus; assay: Antiviral activity against Respiratory syncytial virus infected in human HeLa cells after 3 days by neutral red dye-based plaque reduction assay; type: functional, organism-based
Yellow fever virus = assay: Antiviral activity against Yellow fever virus infected in African green monkey Vero cells after 3 days by neutral red dye-based plaque reduction assay; type: functional, organism-based; conditions: 72 h
HeLa = assay: Cytotoxicity against human HeLa cells; type: cell-based
[15] = Cytotoxicity against African green monkey Vero 76 cells; type: cell-based; conditions: chlorocebus sabaeus, vero 76
[16] = Cytotoxicity against human […] cells; type: cell-based
Hepatitis B virus = assay: Antiviral activity against HBV infected in human HepG22.2.15 cells after 3 days by neutral red dye-based plaque reduction assay; type: functional, organism-based; conditions: HepG2 2.2.15, 72 h
Hepatitis C virus = assay: Antiviral activity against Hepatitis C virus infected in human Ava5 cells after 3 days by neutral red dye-based plaque reduction assay; type: functional, organism-based; conditions: Hepacivirus hominis
Vaccinia virus = assay: Antiviral activity against Vaccinia virus infected in HEL cells after 3 days by neutral red dye-based plaque reduction assay; type: functional, organism-based; conditions: Orthopoxvirus vaccinia
Dengue virus = assay: Antiviral activity against Dengue virus infected in African green monkey Vero cells after 3 days by neutral red dye-based plaque reduction assay; type: functional, organism-based
Chikungunya virus = assay: Antiviral activity against Chikungunya virus infected in African green monkey Vero 76 cells after 3 days by neutral red dye-based plaque reduction assay; type: functional, cell-based
Pichinde virus = assay: Antiviral activity against Pichinde virus infected in African green monkey Vero cells after 3 days by neutral red dye-based plaque reduction assay; type: functional, organism-based
Cowpox virus = assay: Antiviral activity against Cowpox virus infected in HFF after 3 days by neutral red dye-based plaque reduction assay; type: functional, organism-based
HEK293 = assay: Cytotoxicity against HEK293 cells; type: cell-based; conditions: human
Tacaribe virus = assay: Antiviral activity against Tacaribe virus infected in African green monkey Vero 76 cells after 3 days by neutral red dye-based plaque reduction assay; type: functional, organism-based; conditions: Mammarenavirus tacaribeense
Enterovirus A71 = assay: Antiviral activity against Enterovirus 71 infected in monkey LLC-MK2 cells after 3 days by neutral red dye-based plaque reduction assay; type: functional, organism-based
Human papillomavirus = assay: Antiviral activity against Human papillomavirus infected in HEK293 cells after 3 days by neutral red dye-based plaque reduction assay; type: functional, organism-based
Cytomegalovirus = assay: Antiviral activity against Cytomegalovirus infected in HEL cells after 3 days by neutral red dye-based plaque reduction assay; type: functional, organism-based
Vero = assay: as §1; type: cell-based; conditions: chlorocebus sabaeus, vero

Structure (SMILES) | Activity [1] | Activity (MDCK) | Activity (Enterovirus C) | Activity [2] | IC50 (Measles morbillivirus) [µM] | Ratio CC50/IC50 [5] | Activity [6] | Activity [7] | IC50 [8] [nM] | Activity [9] | CC50 [11] [µM] | Activity (Rift Valley fever virus) | Activity (HEL) | Activity (West Nile virus) | Activity [14] | Activity (HeLa) | Activity [15] | Activity (Hepatitis C virus) | Activity (Vaccinia virus) | Activity (Dengue virus) | further results
Nc1nc(F)cc2c1ncn2[C@@H]1C=C(CO)[C@@H](O)[C@H]1O | Non-toxic | Non-toxic | inactive | inactive | 8.5 | >12 | Non-toxic | inactive | 1400 | Non-toxic | > 100 | inactive | Non-toxic | inactive | inactive | Non-toxic | Non-toxic | inactive | inactive | inactive | CC50 [3]: > 100 µM; Activity (Human alphaherpesvirus 1): inactive; Ratio CC50/IC50 [4]: 17; Activity (Influenza A virus): inactive; Activity (LLC-MK2): Non-toxic; CC50 [10]: 218 µM; Activity (SARS-CoV): inactive; Ratio CC50/IC50 [12]: >50; IC50 (Human betaherpesvirus 5): 8.7 µM; Ratio CC50/IC50 [13]: 25; Activity (Human alphaherpesvirus 2): inactive; IC50 (Yellow fever virus): 6.8 µM; CC50 [16]: 11 µM; IC50 (Hepatitis B virus): 670 nM
Nc1nc(F)cc2c1ncn2[C@@H]1C[C@H](O)[C@@H](O)[C@H]1O | Non-toxic | Non-toxic | inactive | inactive | 30.2 | >3 | Non-toxic | inactive | 1000 | Non-toxic | > 100 | inactive | Non-toxic | inactive | inactive | Non-toxic | Non-toxic | inactive | inactive | inactive | Activity (Chikungunya virus): inactive; CC50 [3]: > 100 µM; Activity (Human alphaherpesvirus 1): inactive; Activity (Influenza A virus): inactive; Activity (LLC-MK2): Non-toxic; Activity (SARS-CoV): inactive; Ratio CC50/IC50 [12]: >6.7; Activity (Human alphaherpesvirus 2): inactive; Activity (Pichinde virus): inactive; Activity (Cowpox virus): inactive; IC50 (Yellow fever virus): 15 µM; Activity (HEK293): Non-toxic; Activity (Tacaribe virus): inactive; Activity (Enterovirus A71): inactive; Activity (Human papillomavirus): inactive; Activity (Cytomegalovirus): inactive
Nc1nc(F)cc2c1ncn2[C@@H]1C[C@H](CCO)[C@@H](O)[C@H]1O |  |  |  | inactive | 162 | >2.1 | Non-toxic | inactive | 3750 | Non-toxic | > 338 | inactive | Non-toxic | inactive | inactive | Non-toxic | Non-toxic | inactive | inactive | inactive | Activity (Vero): Non-toxic; Activity (Tacaribe virus): inactive
